How the values were obtained:
Assay in all cases: Post-emergence test, weed control effect
Format in all cases: in vivo
Details in all cases: after 3 weeks
Veronica polita = test system: Veronica polita
How it was run: (§1)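 Weeds sown in soil-filled pots and sprayed at 2-3 leaf stage (2-3 weeks after sowing) with compound in acetone/Tween-80/water plus 80% vegetable oil methyl ester synergist at 1500 g/ha. After 3 weeks in the greenhouse, fresh-weight growth inhibition scored on a 0-10 scale (10 = completely dead).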

Chenopodiaceae = test system: Chenopodiaceae
How it was run: as §1

Rorippa indica = test system: Rorippa indica
How it was run: as §1

Amaranthus retroflexus = test system: Amaranthus retroflexus
How it was run: as §1

CC(C)=NOc1cc(C(F)(F)F)nnc1-c1ccc(F)c(F)c1 [Compound 1-169]
10: weed control effect, Veronica polita (activity level) (Veronica polita; Dose 3000 g/ha) | weed control effect, Chenopodiaceae (activity level) (Chenopodiaceae; Dose 3000 g/ha) | weed control effect, Rorippa indica (activity level) (Rorippa indica; Dose 3000 g/ha) | weed control effect, Amaranthus retroflexus (activity level) (Amaranthus retroflexus; Dose 3000 g/ha)

CN1CCN(S(=O)(=O)Oc2cc(C(F)(F)F)nnc2-c2ccc(F)cc2)CC1 [Compound 1-125]
10: weed control effect, Veronica polita (activity level) (Veronica polita; Dose 3000 g/ha) | weed control effect, Chenopodiaceae (activity level) (Chenopodiaceae; Dose 3000 g/ha) | weed control effect, Rorippa indica (activity level) (Rorippa indica; Dose 3000 g/ha) | weed control effect, Amaranthus retroflexus (activity level) (Amaranthus retroflexus; Dose 3000 g/ha)

Oc1cc(C(F)(F)F)nnc1-c1ccccc1C(F)(F)F [Compound 737]
10: weed control effect (activity level), Veronica polita (Veronica polita; Dose 3000 g/ha) | weed control effect (activity level), Chenopodiaceae (Chenopodiaceae; Dose 3000 g/ha) | weed control effect (activity level), Rorippa indica (Rorippa indica; Dose 3000 g/ha) | weed control effect (activity level), Amaranthus retroflexus (Amaranthus retroflexus; Dose 3000 g/ha)

N#Cc1cccc(-c2nnc(C(F)(F)F)cc2O)c1 [Compound 742]
10: weed control effect (activity level), Veronica polita (Veronica polita; Dose 3000 g/ha) | weed control effect (activity level), Chenopodiaceae (Chenopodiaceae; Dose 3000 g/ha) | weed control effect (activity level), Rorippa indica (Rorippa indica; Dose 3000 g/ha) | weed control effect (activity level), Amaranthus retroflexus (Amaranthus retroflexus; Dose 3000 g/ha)

CC(C)(C)SC(=O)Oc1cc(C(F)(F)F)nnc1-c1cc(Cl)ccc1Cl [Compound 1-47]
10: weed control effect, Veronica polita (activity level) (Veronica polita; Dose 3000 g/ha) | weed control effect, Chenopodiaceae (activity level) (Chenopodiaceae; Dose 3000 g/ha) | weed control effect, Rorippa indica (activity level) (Rorippa indica; Dose 3000 g/ha) | weed control effect, Amaranthus retroflexus (activity level) (Amaranthus retroflexus; Dose 3000 g/ha)

CCCCCCCCSC(=S)Oc1cc(C(F)(F)F)nnc1-c1ccc(F)c(F)c1 [Compound 1-163]
10: weed control effect, Veronica polita (activity level) (Veronica polita; Dose 3000 g/ha) | weed control effect, Chenopodiaceae (activity level) (Chenopodiaceae; Dose 3000 g/ha) | weed control effect, Rorippa indica (activity level) (Rorippa indica; Dose 3000 g/ha) | weed control effect, Amaranthus retroflexus (activity level) (Amaranthus retroflexus; Dose 3000 g/ha)

Cc1cc(-c2nnc(C(F)(F)F)cc2O)ccc1Cl [Compound 72]
10: weed control effect (activity level), Veronica polita (Veronica polita; dose 1000 g/ha) | weed control effect (activity level), Chenopodiaceae (Chenopodiaceae; dose 1000 g/ha) | weed control effect (activity level), Rorippa indica (Rorippa indica; dose 1000 g/ha) | weed control effect (activity level), Amaranthus retroflexus (Amaranthus retroflexus; dose 1000 g/ha)

Oc1cc(C(F)(F)F)nnc1-c1ccc(OC(F)(F)F)cc1 [Compound 128]
10: weed control effect (activity level), Veronica polita (Veronica polita; dose 1000 g/ha) | weed control effect (activity level), Chenopodiaceae (Chenopodiaceae; dose 1000 g/ha) | weed control effect (activity level), Rorippa indica (Rorippa indica; dose 1000 g/ha) | weed control effect (activity level), Amaranthus retroflexus (Amaranthus retroflexus; dose 1000 g/ha)

Cn1cncc1-c1nnc(C(F)(F)F)cc1O [Compound 857]
10: weed control effect (activity level), Veronica polita (Veronica polita; Dose 3000 g/ha) | weed control effect (activity level), Chenopodiaceae (Chenopodiaceae; Dose 3000 g/ha) | weed control effect (activity level), Rorippa indica (Rorippa indica; Dose 3000 g/ha) | weed control effect (activity level), Amaranthus retroflexus (Amaranthus retroflexus; Dose 3000 g/ha)

O=C(Oc1cc(C(F)(F)F)nnc1-c1ccc(F)c(F)c1)c1ccccc1 [Compound 1-79]
10: weed control effect, Veronica polita (activity level) (Veronica polita; Dose 3000 g/ha) | weed control effect, Chenopodiaceae (activity level) (Chenopodiaceae; Dose 3000 g/ha) | weed control effect, Rorippa indica (activity level) (Rorippa indica; Dose 3000 g/ha) | weed control effect, Amaranthus retroflexus (activity level) (Amaranthus retroflexus; Dose 3000 g/ha)

N#Cc1ccncc1-c1nnc(C(F)(F)F)cc1O [Compound 980]
10: weed control effect (activity level), Veronica polita (Veronica polita; Dose 3000 g/ha) | weed control effect (activity level), Chenopodiaceae (Chenopodiaceae; Dose 3000 g/ha) | weed control effect (activity level), Rorippa indica (Rorippa indica; Dose 3000 g/ha) | weed control effect (activity level), Amaranthus retroflexus (Amaranthus retroflexus; Dose 3000 g/ha)

CP(=O)(O)CCC(N)C(=O)Oc1cc(C(F)(F)F)nnc1-c1ccc(F)cc1 (stereo not drawn) [Compound 1-78]
10: weed control effect, Veronica polita (activity level) (Veronica polita; Dose 3000 g/ha) | weed control effect, Chenopodiaceae (activity level) (Chenopodiaceae; Dose 3000 g/ha) | weed control effect, Rorippa indica (activity level) (Rorippa indica; Dose 3000 g/ha) | weed control effect, Amaranthus retroflexus (activity level) (Amaranthus retroflexus; Dose 3000 g/ha)

Oc1cc(C(F)(F)F)nnc1-c1cccnc1I [Compound 969]
10: weed control effect (activity level), Veronica polita (Veronica polita; Dose 3000 g/ha) | weed control effect (activity level), Chenopodiaceae (Chenopodiaceae; Dose 3000 g/ha) | weed control effect (activity level), Rorippa indica (Rorippa indica; Dose 3000 g/ha) | weed control effect (activity level), Amaranthus retroflexus (Amaranthus retroflexus; Dose 3000 g/ha)

CCCOC(=S)Oc1cc(C(F)(F)F)nnc1-c1ccc(OC)cc1 [Compound 1-156]
10: weed control effect, Veronica polita (activity level) (Veronica polita; Dose 3000 g/ha) | weed control effect, Chenopodiaceae (activity level) (Chenopodiaceae; Dose 3000 g/ha) | weed control effect, Rorippa indica (activity level) (Rorippa indica; Dose 3000 g/ha) | weed control effect, Amaranthus retroflexus (activity level) (Amaranthus retroflexus; Dose 3000 g/ha)

O=Cc1c(F)cccc1-c1nnc(C(F)(F)F)cc1O [Compound 63]
10: weed control effect (activity level), Veronica polita (Veronica polita; dose 1000 g/ha) | weed control effect (activity level), Chenopodiaceae (Chenopodiaceae; dose 1000 g/ha) | weed control effect (activity level), Rorippa indica (Rorippa indica; dose 1000 g/ha) | weed control effect (activity level), Amaranthus retroflexus (Amaranthus retroflexus; dose 1000 g/ha)

Cn1ncc(F)c1-c1nnc(C(F)(F)F)cc1O [Compound 804]
10: weed control effect (activity level), Veronica polita (Veronica polita; Dose 3000 g/ha) | weed control effect (activity level), Chenopodiaceae (Chenopodiaceae; Dose 3000 g/ha) | weed control effect (activity level), Rorippa indica (Rorippa indica; Dose 3000 g/ha) | weed control effect (activity level), Amaranthus retroflexus (Amaranthus retroflexus; Dose 3000 g/ha)

C=Cc1cc(-c2nnc(C(F)(F)F)cc2O)c(F)cc1Cl [Compound 166]
10: weed control effect (activity level), Veronica polita (Veronica polita; dose 2000 g/ha) | weed control effect (activity level), Chenopodiaceae (Chenopodiaceae; dose 2000 g/ha) | weed control effect (activity level), Rorippa indica (Rorippa indica; dose 2000 g/ha) | weed control effect (activity level), Amaranthus retroflexus (Amaranthus retroflexus; dose 2000 g/ha)

COc1cc(Cl)c(COc2cc(C(F)(F)F)nnc2-c2ccc(F)cc2)cc1Cl [Compound 1-211]
10: weed control effect, Veronica polita (activity level) (Veronica polita; Dose 3000 g/ha) | weed control effect, Chenopodiaceae (activity level) (Chenopodiaceae; Dose 3000 g/ha) | weed control effect, Rorippa indica (activity level) (Rorippa indica; Dose 3000 g/ha) | weed control effect, Amaranthus retroflexus (activity level) (Amaranthus retroflexus; Dose 3000 g/ha)

From patent US12568972B2, “Pyridazinol compounds and derivatives, preparation methods, herbicidal compositions and applications thereof” (Qingdao Kingagroot Chemical Compound Co., Ltd., priority 2018, dated 2026)
